From PubChem BioAssay (NCI)
Values joined by “and” are separate entries in the source; they are usually repeats but may differ in a detail not shown here. Equal values may be shown once.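 Values below derive from 48-hour exposures of cells grown in 96-well plates, with endpoints linearly interpolated between the two concentrations bracketing the appropriate inhibition level. The concentration for 50% growth inhibition is given as GI50. TGI: total growth inhibition.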

What was measured:
Experiment in all cases: NCI-60 cell line screen, 48 h
[1] = tested on: EKVX NSCLC
[2] = tested on: SF-268 CNS
[3] = tested on: UACC-257 melanoma
[4] = tested on: HT29 colon
[5] = tested on: COLO 205 colon
[6] = tested on: SW-620 colon
[7] = tested on: OVCAR-8 ovarian
[8] = tested on: HCT-116 colon
[9] = tested on: TK-10 renal
[10] = tested on: HOP-18 NSCLC
[11] = tested on: LOX IMVI melanoma
[12] = tested on: A498 renal
[13] = tested on: HOP-92 NSCLC
[14] = tested on: XF 498 CNS
[15] = tested on: K-562 leukemia
[16] = tested on: HCC-2998 colon
[17] = tested on: KM12 colon
[18] = tested on: SR leukemia
[19] = tested on: HOP-62 NSCLC
[20] = tested on: DMS 273 small cell lung
[21] = tested on: SNB-78 CNS
[22] = tested on: A549 NSCLC
[23] = tested on: SF-539 CNS
[24] = tested on: MOLT-4 leukemia
[25] = tested on: RPMI-8226 leukemia
[26] = tested on: SK-OV-3 ovarian
[27] = tested on: U251 CNS
[28] = tested on: OVCAR-4 ovarian
[29] = tested on: NCI-H460 lung
[30] = tested on: SN12C renal
[31] = tested on: IGROV1 ovarian
[32] = tested on: KM20L2 colon
[33] = tested on: MALME-3M melanoma
[34] = tested on: NCI-H226 lung
[35] = tested on: DMS 114 small cell lung
[36] = tested on: HCT-15 colon
[37] = tested on: SK-MEL-2 melanoma
[38] = tested on: NCI-H23 lung
[39] = tested on: CCRF-CEM leukemia
[40] = tested on: RXF 393 renal
[41] = tested on: UO-31 renal
[42] = tested on: UACC-62 melanoma
[43] = tested on: SF-295 CNS
[44] = tested on: HL-60(TB) leukemia
[45] = tested on: SNB-19 CNS
[46] = tested on: SK-MEL-28 melanoma
[47] = tested on: SNB-75 CNS
[48] = tested on: 786-0 renal
[49] = tested on: ACHN renal
[50] = tested on: DLD-1 colon
[51] = tested on: LXFL 529 NSCLC
[52] = tested on: OVCAR-3 ovarian
[53] = tested on: M19-MEL melanoma
[54] = tested on: M14 melanoma
[55] = tested on: NCI-H522 lung
[56] = tested on: CAKI-1 renal
[57] = tested on: SK-MEL-5 melanoma

CCN(CC)C(=O)c1c(Cl)cc(N(CC)CC)oc1=O
TGI [1]: > 100 µM | TGI [2]: > 100 µM | TGI [3]: > 100 µM | TGI [4]: > 100 µM | TGI [5]: > 100 µM | TGI [6]: > 100 µM | TGI [7]: > 100 µM | TGI [8]: > 100 µM | TGI [9]: > 100 µM | TGI [10]: > 100 µM | TGI [11]: > 100 µM | TGI [12]: > 100 µM | TGI [13]: > 100 µM | TGI [14]: > 100 µM | TGI [15]: > 100 µM | TGI [16]: > 100 µM | TGI [17]: > 100 µM | TGI [18]: > 100 µM | TGI [19]: > 100 µM | TGI [20]: > 100 µM | TGI [21]: > 100 µM | TGI [22]: > 100 µM | TGI [23]: > 100 µM | TGI [24]: > 100 µM | TGI [25]: > 100 µM | TGI [26]: > 100 µM | TGI [27]: > 100 µM | TGI [28]: > 100 µM | TGI [29]: > 100 µM | TGI [30]: > 100 µM | TGI [31]: > 100 µM | TGI [32]: > 100 µM | TGI [33]: > 100 µM | TGI [34]: > 100 µM | TGI [35]: > 100 µM | TGI [36]: > 100 µM | TGI [37]: > 100 µM | TGI [38]: > 100 µM | TGI [39]: > 100 µM | TGI [40]: > 100 µM | TGI [41]: > 100 µM | TGI [42]: > 100 µM | TGI [43]: > 100 µM | TGI [44]: > 100 µM | TGI [45]: > 100 µM | TGI [46]: > 100 µM | TGI [47]: > 100 µM | TGI [48]: > 100 µM | TGI [49]: > 100 µM | TGI [50]: > 100 µM | TGI [51]: > 100 µM | TGI [52]: > 100 µM | TGI [53]: > 100 µM | TGI [54]: > 100 µM | TGI [55]: > 100 µM

COc1cc(C2c3cc4c(cc3[C@@H](NCCCN3CCCC3=O)C3COC(=O)[C@H]23)OCO4)cc(OC)c1O (some centres undefined)
TGI [1]: > 100 µM | GI50 [2]: 9.24 µM and 1.58 µM | TGI [2]: > 100 µM | TGI [4]: > 100 µM | TGI [5]: > 100 µM | TGI [6]: > 100 µM | TGI [7]: > 100 µM | TGI [8]: > 100 µM | TGI [9]: > 100 µM | TGI [10]: > 100 µM | GI50 [11]: 8.13 µM and 0.813 µM | TGI [11]: 33.7 µM and > 17.5 µM | TGI [56]: > 100 µM | TGI [13]: 71.1 µM and > 17.5 µM | TGI [14]: > 100 µM | TGI [15]: > 100 µM | TGI [16]: 85.7 µM | TGI [17]: > 100 µM | TGI [18]: > 100 µM | GI50 [19]: 5.45 µM and 0.712 µM | TGI [19]: 34.3 µM and > 17.5 µM | GI50 [20]: 3.59 µM and 0.476 µM | TGI [20]: 21.3 µM and > 17.5 µM | GI50 [22]: 6.23 µM and 1.01 µM | TGI [22]: 40 µM and > 17.5 µM | GI50 [23]: 3.65 µM | TGI [23]: 21.4 µM | TGI [24]: > 100 µM | TGI [25]: > 100 µM | TGI [26]: 39.4 µM | TGI [27]: 63 µM and > 17.5 µM | GI50 [28]: > 100 µM | TGI [28]: > 100 µM | GI50 [29]: 1.54 µM and 0.58 µM | TGI [29]: 15.7 µM and > 17.5 µM | TGI [30]: 80.9 µM and > 17.5 µM | TGI [31]: > 100 µM | TGI [32]: > 100 µM | GI50 [33]: 11 µM | TGI [33]: > 100 µM | GI50 [34]: 3.38 µM and 1.35 µM | TGI [34]: 23 µM and 9.53 µM | GI50 [35]: 2.89 µM and 0.701 µM | TGI [35]: 9.46 µM and > 17.5 µM | TGI [36]: > 100 µM | TGI [37]: > 100 µM | GI50 [38]: 5.27 µM | TGI [38]: 32.2 µM | TGI [39]: > 100 µM | TGI [40]: > 100 µM | TGI [41]: 43.7 µM and > 17.5 µM | GI50 [42]: 4.03 µM and 0.677 µM | TGI [42]: 26 µM and > 17.5 µM | TGI [43]: > 100 µM | GI50 [45]: 38 µM and > 17.5 µM | TGI [45]: > 100 µM | TGI [46]: > 100 µM | TGI [47]: 6.81 µM | TGI [48]: 60.4 µM and > 17.5 µM | TGI [49]: 16.5 µM | GI50 [57]: 4.21 µM and 0.526 µM | TGI [57]: 33.5 µM and > 17.5 µM | TGI [50]: > 100 µM | TGI [51]: > 100 µM | TGI [52]: > 100 µM | TGI [53]: > 100 µM | TGI [54]: > 100 µM | GI50 [55]: 5.65 µM | TGI [55]: 84.3 µM
